Several values for one entry are separate records, joined by “and”; a condition that tells them apart may be missing. Equal entries are not always repeated. Entries after “also recorded” stand apart in the source; their conditions may differ. Where two headings read alike, the source gives them in different places. Marks after values point to notes of the source that are not given here.
Experiments:
MRSA USA 300 ATCC 1717 = experiment: Checkerboard MIC assay against MRSA USA300 (Example 1); format: cell-based, Staphylococcus aureus; conditions: for MIC: Staphylococcus aureus
[1] = system: S. epidermidis ATCC 12228 (MSSE 12228); experiment: MIC/potentiation against MSSE 12228; format: cell-based, Staphylococcus epidermidis
MRSE 35984 = experiment: Checkerboard assay (Example 3), MRSE 35984; format: cell-based, Staphylococcus epidermidis
Protocol: (§1) Cells were grown at 37° C. The change in OD600 (optical density at 600 nm) was measured and recorded after 24 hr of treatment. Each checkerboard trial was done in triplicate using sterile Greiner CellStar™ flat bottom polystyrene plates, catalog #655180.

[2] = system: MRSA clinical isolate OU11; experiment: Clinical laboratory susceptibility (MicroScan), MRSA isolate 11; format: cell-based, S. aureus; conditions: MicroScan PC33 gram positive panel
[3] = system: MRSA clinical isolate OU6; experiment: Clinical laboratory susceptibility (MicroScan), MRSA isolate 6; format: cell-based, S. aureus; conditions: MicroScan PC33 gram positive panel
MRSA MW2 = experiment: Checkerboard assay (Example 3), MRSA MW2; format: cell-based, Staphylococcus aureus; conditions: for MIC: MRSA MW2, agent alone
Protocol: as §1

MRSA USA300 (BAA-1717) = experiment: Checkerboard assay (Example 3), MRSA USA300; format: cell-based, Staphylococcus aureus; conditions: for MIC: MRSA USA300, agent alone
Protocol: as §1

[4] = system: S. epidermidis ATCC 35984 (MRSE 35984); experiment: MIC/potentiation against MRSE 35984 (Example 1); format: cell-based, Staphylococcus epidermidis
MRSE 35984 biofilms = experiment: Biofilm kill curve; format: cell-based, Staphylococcus epidermidis; conditions: 64 μg/mL BPEI, 16 μg/mL oxacillin, or both
Protocol: Biofilm was grown in an MBEC inoculator plate for 24 hours with shaking to facilitate biofilm formation. At time zero, the prongs were sonicated in PBS for 30 minutes and then plated on agar for CFU counting. […] The prongs on the MBEC inoculator were washed in PBS for 10 seconds and then transferred into the new treated base plate and incubated. Agar CFU plating was performed at 2 hours, 4 hours, 8 hours, and 24 hours for each treatment group. All the agar plating was incubated at 35° C. and counted for colony forming units the next day. Each trial was done in duplicate.

MRSE 35984 biofilm = experiment: MBEC assay (challenge plate MIC, recovery plate MBEC), MRSE 35984; format: cell-based, Staphylococcus epidermidis
Protocol: A sub-culture of MRSE was grown from the cryogenic stock on an agar plate overnight at 35° C. The MBEC plate was inoculated with 150 μL of TSB/well plus 1 μL of a stock culture made from 1 colony/mL of MRSE in TSB. The MBEC inoculator plate was sealed with Parafilm and incubated for 24 hours at 35° C. with 100 rpm shaking to facilitate biofilm formation on the prongs. Following biofilm formation, the lid of the MBEC inoculator was removed and placed in a rinse plate containing 200 μL of sterile PBS for 10 sec. Biofilm growth check (BGC) was performed by breaking a few prongs off using sterile pliers, submerging them in 1 mL PBS, and sonicating them on high for 30 minutes to dislodge the biofilm. After sonication, the biofilm solution was serial-diluted and spot-plated on agar plates for CFU counting to determine the biofilm density on the prongs.
A challenge plate was made in a new pre-sterilized 96-well plate in a checkerboard-assay pattern to test the synergistic activity of BPEI+antibiotic combinations. Antimicrobial solutions were serial-diluted and added to the 96-well plate, which contained 200 μL of cation-adjusted Mueller-Hinton broth (MHB) per well. Following the rinsing step and biofilm growth check, the MBEC inoculator lid was immediately transferred into the prepared antimicrobial challenge plate and incubated at 35° C. for 20-24 hours. After the challenge period, the MBEC inoculator lid was transferred into a recovery plate containing 200 μL of MHB per well, sonicated on high for 30 minutes to dislodge the biofilm and then incubated at 35° C. for 20-24 hour to allow the surviving bacterial cells to grow. After incubation, the OD600 (optical density at 600 nm) of the recovery plate was measured using a Tecan Infinite M20 plate reader to determine the MBEC of the antimicrobial compounds tested. A change in OD600 greater than 0.05 indicated positive growth. Likewise, the OD600 for the base of the challenge plate was measured […] to determine the MICs of the antimicrobial compounds.

MRSA OU6 biofilms = experiment: Biofilm disrupting assay (crystal violet), MRSA OU6; format: cell-based, Staphylococcus aureus; conditions: 64 and 128 μg/mL, 20 hr
Protocol: This experiment was conducted in parallel with polymyxin B (PmB, a cationic polypeptide antibiotic) and BPEI600. In short, an overnight MRSA OU 6 culture was inoculated in a tissue-culture treated 96-well plate (100 μL of tryptic soy broth or TSB/well) with an inoculation size of 1 μL/well (˜5×10^5 CFU/mL). The plate was incubated at 35° C. for 24 hr to allow the bacteria to form biofilm. It was then washed with water to remove planktonic bacteria and stained with 100 μL of crystal violet solution (0.1%) per well for 15 min. The stained plate was washed excessively with water 5 times to remove any unbound stain and air-dried overnight. […] A negative control (water only) and positive control (30% acetic acid) were also conducted at the same time of treatment. After 20 hr, without touching the biofilm layer in the bottom of the plate, solubilized solution in each treated well was carefully transferred to a new 96-well plate for an OD550 measurement, which represents the corresponding amount of biofilm disrupted by each treatment.

[5] = system: P. aeruginosa BAA-47 cells; experiment: Resazurin cell viability assay; format: cell-based, Pseudomonas aeruginosa; conditions: 64 μg/mL
Protocol: All fluorescence studies used a cell density of ˜6×10^9 CFU/mL, while checkerboard assays only inoculated a cell density of 5×10^5 CFU/mL. Therefore, an amount of 128 μg/mL BPEI for fluorescence assays is considered sub-lethal, which is tested and confirmed by resazurin assays. The reduction of resazurin to resorufin occurs via cellular metabolism and thus is an excellent reporter of cell viability. […] First, the cells in the fluorescence assays are viable and thus drug influx and efflux processes control the intracellular concentration rather than widespread disruption of outer membrane that leads to cell lysis.

[6] = system: P. aeruginosa BAA-47 cells; experiment: NPN accumulation assay; format: cell-based, Pseudomonas aeruginosa; conditions: 64 μg/mL polymyxin-B; 64 and 128 μg/mL BPEI600; ~6×10^9 CFU/ml
Protocol: Overnight culture of P. aeruginosa BAA-47 was used to inoculate fresh CAMHB media for another 5 hr at 35° C. with shaking. Bacterial cells were collected by centrifugation at 6000 rpm for 40 min and resuspended in PBS. The OD600 of the cell suspension was adjusted to ˜1.0 and kept at room temperature during the experiment. Aliquots (180 μL/well) of the cell suspension were transferred to a 96-well flat-bottom black plate in the format of column 1, PBS blank; column 2, untreated control cells BAA-47; column 3, cells BAA-47+BPEI (sub-lethal concentration). Five technical replicates of each group were conducted. Fluorescent probes Hoechst 33342 bisbenzimide (H33342) or 1-N-phenylnaphthylamine (NPN) was added (20 μL) to each well with a final concentration of 5 μM. Fluorescence was read immediately after the addition of H33342 or NPN by a Tecan Infinite M20 plate reader with the excitation and emission filters of 355 and 460 nm for H33342 or 350 and 420 nm for NPN, respectively. Fluorescence data were normalized to the emission before cells were added in the PBS control, and they were plotted against time to show the cellular uptake of H33342 or NPN over 10 min.

Cc1onc(-c2ccccc2)c1C(=O)N[C@@H]1C(=O)N2[C@@H]1SC(C)(C)[C@@H]2C(=O)O [oxacillin]
MIC with 4 μg/ml (6.75 μM) 600-Da BPEI (MRSA USA 300 ATCC 1717; MRSA USA300): 1 µg/mL | MIC, antibiotic + 16 μg/ml (17 μM) PEG350BPEI600 (MRSA USA 300 ATCC 1717; MRSA USA300): 0.5 µg/mL | MIC, antibiotic + 64 μg/ml (40 μM) PEG1000BPEI600 (MRSA USA 300 ATCC 1717; MRSA USA300): 0.5 µg/mL | MIC (MRSA USA 300 ATCC 1717; MRSA USA300, agent alone, read-out: MIC of antibiotic only): 16 µg/mL | MIC (MRSA USA 300 ATCC 1717; MRSA USA300, read-out: oxacillin MIC with 16 μg/mL of PEG350BPEI600 (17 μM)): 0.5 µg/mL | effect of 50% FBS on oxacillin MIC (MRSA USA 300 ATCC 1717; potentiation in fetal bovine serum vs CAMHB without FBS): does not change | fold reduction of oxacillin MIC (MRSA USA 300 ATCC 1717; with BPEI600, MRSA USA300): 2 fold | MIC, antibiotic + 2 μg/ml (3.375 μM) 600-Da BPEI [1]: 0.1 µg/mL | MIC, antibiotic + 4 μg/ml (6.75 μM) 600-Da BPEI [1]: 0.1 µg/mL | MIC of antibiotic only ([1]; agent alone): 0.1 µg/mL | OXA MIC in combination with 600 Da BPEI (MRSE 35984; BPEI amount in same cell): 8 µg/mL | MIC (MRSE 35984; MRSE 35984, agent alone): 32 µg/mL | MIC (MRSE 35984; MRSE 35984, agent alone, listed as OXA): 32 µg/mL and 64 µg/mL | OXA MIC in combination with PEG-BPEI (MRSE 35984; PEG-BPEI amount in same cell): 8 µg/mL | MIC (MRSE 35984; Staphylococcus epidermidis, MRSE, MRSE 35984, agent alone, read-out: MIC): 64 µg/mL | MIC (MRSE 35984; Staphylococcus epidermidis, MRSE, read-out: oxacillin MIC with 6.67 μM BPEI600, MRSE planktonic cells): 4 µg/mL | MIC (MRSE 35984; Staphylococcus epidermidis, MRSE, read-out: oxacillin MIC with 33.37 μM of PEG350-BPEI600, MRSE planktonic cells): 4 µg/mL | MIC [2]: > 2 µg/mL | MIC [3]: > 2 µg/mL | OXA MIC in combination with 600 Da BPEI (MRSA MW2; BPEI amount in same cell): 2 µg/mL | MIC (MRSA MW2; listed as OXA): 32 µg/mL and 16 µg/mL | OXA MIC in combination with PEG-BPEI (MRSA MW2; PEG-BPEI amount in same cell): 4 µg/mL | MIC (MRSA MW2; Staphylococcus aureus, MRSA, read-out: MIC): 32 µg/mL | OXA MIC in combination with 600 Da BPEI (MRSA USA300 (BAA-1717); BPEI amount in same cell): 4 µg/mL | MIC (MRSA USA300 (BAA-1717); listed as OXA): 32 µg/mL and 16 µg/mL | OXA MIC in combination with PEG-BPEI (MRSA USA300 (BAA-1717); PEG-BPEI amount in same cell): 2 µg/mL | MIC (MRSA USA300 (BAA-1717); Staphylococcus aureus, read-out: MIC): 32 µg/mL | MIC, antibiotic + 2 μg/ml (3.375 μM) 600-Da BPEI [4]: 2 µg/mL | MIC, antibiotic + 4 μg/ml (6.75 μM) 600-Da BPEI [4]: 0.25 µg/mL | fold reduction of oxacillin MIC ([4]; adding 6.75 μM of BPEI600): 256 fold | MIC of antibiotic only ([4]; agent alone): 64 µg/mL | biofilm cell density at 24 hours (MRSE 35984 biofilms): ~10^3 CFU/mL | MBEC, antibiotic + 4 μg/ml (6.75 μM) 600-Da BPEI (MRSE 35984 biofilm; MRSE 35984 biofilm): 8* μg/ml | oxacillin MBEC with 8 μg/mL of BPEI (MRSE 35984 biofilm; MRSE 35984 biofilm): 32 µg/mL | oxacillin MBEC with 64 μg/mL of BPEI (MRSE 35984 biofilm; MRSE 35984 biofilm): 8 µg/mL | oxacillin MBEC in the presence of 13 μM of BPEI600 (MRSE 35984 biofilm; MRSE biofilm): 16 µg/mL | MIC (MRSE 35984 biofilm; Staphylococcus epidermidis, MRSE 35984 planktonic, agent alone): 16 µg/mL

polymyxin B
biofilm dispersal (crystal violet) (MRSA OU6 biofilms): slight dissolution in biomass | cell viability (resazurin) [5]: near background levels; also recorded: lethal | fold increase in NPN fluorescence intensity [6]: 2.7 fold
